Assay results as given in PubChem BioAssay AID248 (DTP/NCI, 2004).
Toxic doses and inconclusive results are not listed. Cut-off read from the data, not from the text of the source: active = T/C of 150% or more; inactive = T/C below 125%.

Test system: L1210 leukemia ip in BDF1 mice, survival T/C
Experiment: NCI In Vivo Anticancer Drug Screen. Data for tumor model L1210 Leukemia (intraperitoneal) in B6D2F1 (BDF1) mice
Conditions: endpoint: mean survival time, higher = longer survival
Summary of the method: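 Each compound was tested against a transplantable tumor grown in mice. The endpoint was survival, with treated animals benchmarked against vehicle controls as a simple ratio.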

[1] = dose: 100.0 mg/kg/injection, schedule: Q01DX009 (ip), vehicle: Klucel (hydroxypropylcellulose) (HPC)
[2] = dose: 200.0 mg/kg/injection, schedule: Q01DX009 (ip), vehicle: Klucel (hydroxypropylcellulose) (HPC)

Measured: T/C

N#CCCCI
inactive: dose: 50.0 mg/kg/injection, schedule: Q04DX003 (ip), vehicle: acetone 96 % of control | dose: 100.0 mg/kg/injection, schedule: Q04DX003 (ip), vehicle: acetone 100 % of control | dose: 200.0 mg/kg/injection, schedule: Q04DX003 (ip), vehicle: acetone 105 % of control

CCOC(=O)/C(O)=C/c1cnc2ccccc2n1
inactive: dose: 50.0 mg/kg/injection, schedule: Q01DX009 (ip), vehicle: Klucel (hydroxypropylcellulose) (HPC) 94 % of control | [1] 91 % of control | [2] 94 % of control

O=C(O)c1ccc(SSc2ccc(C(=O)O)cn2)nc1
inactive: dose: 100.0 mg/kg/injection, schedule: Q04DX003 (ip), vehicle: saline 102 % of control | dose: 200.0 mg/kg/injection, schedule: Q04DX003 (ip), vehicle: saline 101 % of control | dose: 400.0 mg/kg/injection, schedule: Q04DX003 (ip), vehicle: saline 104 % of control

Nc1ccc(O)c2c1C(=O)c1ccccc1C2=O
inactive: [1] 103 % of control | dose: 100.0 mg/kg/injection, schedule: Q04DX002 (ip), vehicle: Klucel (hydroxypropylcellulose) (HPC) 104 % of control | [2] 92 % of control | dose: 200.0 mg/kg/injection, schedule: Q04DX002 (ip), vehicle: Klucel (hydroxypropylcellulose) (HPC) 115 % of control | dose: 400.0 mg/kg/injection, schedule: Q01DX009 (ip), vehicle: Klucel (hydroxypropylcellulose) (HPC) 96 % of control | dose: 400.0 mg/kg/injection, schedule: Q04DX002 (ip), vehicle: Klucel (hydroxypropylcellulose) (HPC) 100 % of control

C(COCCOCC1CO1)OCCOCC1CO1 (stereo not given)
inactive: dose: 62.0 mg/kg/injection, schedule: Q01DX Z (ip), vehicle: saline 110 % of control | dose: 125.0 mg/kg/injection, schedule: Q01DX Z (ip), vehicle: saline 117 % of control | dose: 250.0 mg/kg/injection, schedule: Q01DX Z (ip), vehicle: saline 116 % of control | dose: 500.0 mg/kg/injection, schedule: Q01DX Z (ip), vehicle: saline 108 % of control

O=C(NCCc1ccc(S(=O)(=O)Nc2ccc(N=Nc3ccc(N=Nc4ccccc4)cc3)cc2)cc1)C(N1CC1)(N1CC1)N1CC1
inactive: dose: 15.0 mg/kg/injection, schedule: Q01DX001 (ip), vehicle: saline 104 % of control | dose: 30.0 mg/kg/injection, schedule: Q01DX001 (ip), vehicle: saline 106 % of control

CCC1(CC)C2=CCC3C(CCC4(C)C(C(C)CCCC(C)C)CCC34)C2(C)CCC1OC(C)=O (stereo not given)
inactive: dose: 50.0 mg/kg/injection, schedule: Q01DX009 (sc), vehicle: steriod suspending solution 90 % of control | dose: 100.0 mg/kg/injection, schedule: Q01DX009 (sc), vehicle: steriod suspending solution 87 % of control | dose: 100.0 mg/kg/injection, schedule: Q04DX003 (sc), vehicle: steriod suspending solution 107 % of control | dose: 200.0 mg/kg/injection, schedule: Q01DX009 (sc), vehicle: steriod suspending solution 100 % of control | dose: 200.0 mg/kg/injection, schedule: Q04DX003 (sc), vehicle: steriod suspending solution 86 % of control | dose: 400.0 mg/kg/injection, schedule: Q04DX003 (sc), vehicle: steriod suspending solution 96 % of control

Cc1cc2c(cc1C)C(O)C(N1CCN(C)CC1)CCC2 (stereo not given)
inactive: dose: 50.0 mg/kg/injection, schedule: Q04DX003 (ip), vehicle: saline with Tween-80 103 % of control | dose: 100.0 mg/kg/injection, schedule: Q04DX003 (ip), vehicle: saline with Tween-80 97 % of control | dose: 200.0 mg/kg/injection, schedule: Q04DX003 (ip), vehicle: saline with Tween-80 92 % of control
